US4500526A, “Cephalosporin derivatives” (Bristol-Myers Company, priority 1983, dated 1985)
Values after ≈ are worked out from the molar mass of the structure shown. Where two headings read alike, the source gives them in different places.

Assays:
[1] = system: Penicillinsensitive S. aureus (5 strains); experiment: MIC, two-fold serial agar dilution, group (G+)-Ia; format: cell-based; settings: Staphylococcus aureus; (G+)-Ia, 5 strains, Mueller-Hinton agar; read-out: Geometric Mean of MIC
In short: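 Two-fold serial agar dilution in Mueller-Hinton agar. Compound weights corrected for purity. Group comprises 5 penicillin-sensitive S. aureus strains.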

Solubility in water = format: physicochemical
Protocol: A more soluble form of Compound Ia was prepared as follows. […] Powdered NaHCO3 was added in small portions, with stirring. A clear solution was obtained after adding 5.0 mg of NaHCO3 and the indicated pH then was 6.0. After filtration through a Millipore membrane filter to remove they insoluble impurities, the filtrate was lyophilized to give 245 mg of a water-soluble form of Compound Ia, mp 165° C. Estimated purity 80% (by HPLC). The sample was completely soluble in water to give a 25% solution.
To a stirred solution of diphenylmethyl 7-[(Z)-2-t-butoxycarbonylprop-2-oxyimino)-2-(2-tritylaminothiazol-4-yl)-acetamido]-3-iodomethyl-3-cephem-4-carboxylate [VIId'] (700 mg, 0.66 mmole) in 3 mL of DMSO, was added thiazolo[4,5-c]pyridine (115 mg, 0.84 mmole) in two portions and the mixture was stirred for 1.25 hours at room temperature. The reaction mixture was diluted with ether (150 mL) to separate an oily product, which was washed again with ether. The residue was dissolved in methylene chloride (100 mL) and the solution was filtered and evaporated to give 655 mg of the blocked product [XIIId']. The yellow product (630 mg) was suspended in anisole (1 mL) and, with ice cooling, was treated with a mixture of TFA (10 mL) and water (0.5 mL). The mixture was stirred for 20 minutes with ice cooling and then for 1 hour at room temperature. After evaporation of the mixture below 30° C., the residue was triturated with isopropyl ether (50 mL). The precipitate was collected by filtration, and dried under reduced pressure to obtain 485 mg of crude title compound as a yellow powder. The crude product (480 mg) was dissolved in a small volume of aqueous sodium bicarbonate and purified by HPLC (Column, Lichrosorb RP-18; mobile phase, water). The desired fractions were combined (ca. 90 mL) and acidified to pH 2 with dilute hydrochloric acid. The acidified solution was passed through an HP-20 column (50 mL) and washed with water (200 mL). […] Mp >180° C. (dec.).
The free acid of Compound Id (100 mg) was dissolved in a small volume of aqueous sodium bicarbonate and subjected to HPLC (Column, Lichrosorb RP-18; mobile phase, water). The eluate containing the desired product which was concentrated and lyophilized to give 30 mg of the sodium salt of Id as a pale yellow amorphous powder, which was more than 25% soluble in water. Mp 178°-196° C. (dec.).
A solution of diphenylmethyl 7-[(Z)-(2-t-butoxycarbonylprop-2-oxyimino)-2-(2-tritylaminothiazol-4-yl)acetamido]-3-iodomethyl-3-cephem-4-carboxylate [VIId'] (9.0 g, 8.5 mmoles) and thiazolo[4,5-c]pyridine (1.5 g, 11 mmoles) in dimethylsulfoxide (38 mL) was stirred at room temperature for 1 hour. The reaction mixture was poured into ether (500 mL) and, after decantation, the oily precipitate was dissolved in chloroform (300 mL). […]

[2] = Mouse blood levels after single intramuscular injection; format: in vivo, mice; settings: in vivo, im, 20 mg/kg
In short: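 Mice received a single intramuscular dose of 20 mg/kg in 0.1M phosphate buffer, pH 7. Orbital sinus blood was sampled over time and bioassayed on Nutrient Agar (pH 6.6) with E. coli Ess-22-31; t1/2 and AUC were derived from the blood levels.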

[3] = system: Ps. aeruginosa (6 strains); experiment: MIC, two-fold serial agar dilution, group (G-)-III; format: cell-based; settings: Pseudomonas aeruginosa; (G-)-III, 6 strains, Mueller-Hinton agar; read-out: Geometric Mean of MIC
Protocol: In the primary evaluation of the compounds of this invention, the Minimum Inhibitory Concentrations (MIC's) of the compounds were determined by the two-fold serial agar dilution method in Mueller-Hinton agar against 32 strains of test organisms in six groups. The sample weights of the test compounds were adjusted according to the purity of each compound, so as to give a more accurate measure of the MIC's.
(G-)III: Ps. aeruginosa (6 strains)

[4] = system: Cephalothinresistant E. coli (3 strains) and Kl. pneumoniae (3 strains); experiment: MIC, two-fold serial agar dilution, group (G-)-Ib; format: cell-based; settings: Escherichia coli, read-out: Geometric Mean of MIC
In short: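 MICs by two-fold serial agar dilution in Mueller-Hinton agar against cephalothin-resistant E. coli and Klebsiella pneumoniae strains. Compound weights were corrected for purity.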

N. meningitidis (5) = experiment: In vitro activity against fastidious bacteria, two-fold serial agar dilution; format: cell-based; settings: Neisseria meningitidis, read-out: Geometric Mean of MIC
Protocol: (§1) The in vitro activity of some of the preferred compounds against 30 strains of fastidious bacteria was determined by the two-fold serial agar dilution method in Gonococcus agar (GC agar), and the results are shown in Table 3.

[5] = system: H. influenzae (3) (ampicillin resistant); experiment: as above; format: cell-based; settings: Haemophilus influenzae, read-out: Geometric Mean of MIC
Protocol: as §1

N. gonorrhoeae (5) = experiment: as above; format: cell-based; settings: Neisseria gonorrhoeae, read-out: Geometric Mean of MIC
Protocol: as §1

S. pneumoniae (5) = experiment: as above; format: cell-based; settings: Streptococcus pneumoniae; GC agar; read-out: Geometric Mean of MIC
Protocol: as §1

S. pyogenes (5 strains) = experiment: as above; format: cell-based; settings: Streptococcus pyogenes; GC agar; read-out: Geometric Mean of MIC
Protocol: as §1

| SMILES | MIC [1] | AUC [2] | concentration at 10 min [2] | concentration at 20 min [2] | concentration at 0.5 h [2] | concentration at 40 min [2] | concentration at 50 min [2] | concentration at 1 h [2] | concentration at 1.5 h [2] | concentration at 2 h [2] | half-life [2] | MIC [3] | MIC [4] | MIC (S. pneumoniae (5)) | MIC (S. pyogenes (5 strains)) | further results |
| --- | --- | --- | --- | --- | --- | --- | --- | --- | --- | --- | --- | --- | --- | --- | --- | --- |
| CO/N=C(\C(=O)NC1C(=O)N2C(C(=O)[O-])=C(C[n+]3ccc4scnc4c3)CS[C@H]12)c1csc(N)n1 (stereo partly shown) [Ia, 7-[(Z)-2-(2-Aminothiazol-4-yl)-2-methoxyiminoacetamido]-3-{(5-thiazolo[4,5-c]pyridinio)methyl}-3-cephem-4-carboxylate] | 0.42 µg/mL (≈ 0.79 µM) | 15000 ng·h/mL | 20000 ng/mL | 15000 ng/mL | 11000 ng/mL | 8600 ng/mL | 6900 ng/mL | 6500 ng/mL | 3100 ng/mL | 2100 ng/mL | 35 min | 2.6 µg/mL (≈ 4.89 µM) | 0.16 µg/mL (≈ 0.301 µM) | 0.0125 µg/mL (≈ 0.0235 µM) | 0.0125 µg/mL (≈ 0.0235 µM) | solubility in water (Solubility in water; 250 mg in distilled water 1.0 mL, indicated pH 4.3): not completely soluble; solubility (Solubility in water; water-soluble form (NaHCO3 to pH 6.0, lyophilized)): ≥ 250 mg/mL; MIC (N. meningitidis (5); GC agar): 0.0125 µg/mL (≈ 0.0235 µM); MIC ([5]; GC agar, ampicillin resistant, 3 strains): 0.0125 µg/mL (≈ 0.0235 µM); MIC (N. gonorrhoeae (5); GC agar): 0.0125 µg/mL (≈ 0.0235 µM) |
| CC(C)(O/N=C(\C(=O)NC1C(=O)N2C(C(=O)[O-])=C(C[n+]3ccc4scnc4c3)CS[C@H]12)c1csc(N)n1)C(=O)O (stereo partly shown) [Id, 7-[(Z)-2-(2-Aminothiazol-4-yl)-2-(2-carboxyprop-2-oxyimino)-acetamido]-3-{(5-thiazolo[4,5-c]pyridinio)methyl}-3-cephem-4-carboxylate] | 4.4 µg/mL (≈ 7.29 µM) | 9500 ng·h/mL | 16000 ng/mL | 14000 ng/mL | 11000 ng/mL | 6100 ng/mL | 3900 ng/mL | 2500 ng/mL | 720 ng/mL | < 200 ng/mL | 16 min | 1.4 µg/mL (≈ 2.32 µM) | 0.71 µg/mL (≈ 1.18 µM) | 0.2 µg/mL (≈ 0.331 µM) | 0.2 µg/mL (≈ 0.331 µM) | solubility in water (Solubility in water; free acid): slightly soluble in water; solubility (Solubility in water; water, sodium salt): > 250 mg/mL; MIC (N. meningitidis (5)): 0.1 µg/mL (≈ 0.166 µM); MIC [5]: 0.1 µg/mL (≈ 0.166 µM); MIC (N. gonorrhoeae (5)): 0.1 µg/mL (≈ 0.166 µM) |
